According to paper PMC3961306, “Comparison of the Cancer Gene Targeting and Biochemical Selectivities of All Targeted Kinase Inhibitors Approved for Clinical Use” (PLoS ONE, 2014):
Where two headings read alike, the source gives them in different places.

System: forty-four human cancer cell lines
Experiment: Cell proliferation assay (ATPlite, 72 hours) in the 44 cell line Oncolines panel
Type: cell-based
[1] = Homo sapiens, 769-P, cell line 769-P, read-out: cell panel IC50, 769-P
[2] = Homo sapiens, 786-0, cell line 786-0, read-out: cell panel IC50, 786-0
[3] = Homo sapiens, A 172, read-out: cell panel IC50, A-172, cell line A-172
[4] = Homo sapiens, A204, cell line A-204, read-out: cell panel IC50, A-204
[5] = Homo sapiens, A498, read-out: cell panel IC50, A-498, cell line A-498
[6] = Homo sapiens, A549, read-out: cell panel IC50, A-549, cell line A-549
[7] = Homo sapiens, A-375, cell line A375, read-out: cell panel IC50, A375
[8] = Homo sapiens, A-427, read-out: cell panel IC50, A-427, cell line A-427
[9] = Homo sapiens, ACHN, cell line ACHN, read-out: cell panel IC50, ACHN
[10] = Homo sapiens, AN3-CA, cell line AN3 CA, read-out: cell panel IC50, AN3 CA
[11] = Homo sapiens, AU565, read-out: cell panel IC50, AU-565, cell line AU-565
[12] = Homo sapiens, BT-20, cell line BT-20, read-out: cell panel IC50, BT-20
[13] = Homo sapiens, BT-549, read-out: cell panel IC50, BT-549, cell line BT-549
[14] = Homo sapiens, BXPC-3, cell line BxPC-3, read-out: cell panel IC50, BxPC-3
[15] = Homo sapiens, C-33-A, cell line C-33 A, read-out: cell panel IC50, C-33 A
[16] = Homo sapiens, CAL-27, cell line CAL 27, read-out: cell panel IC50, CAL 27
[17] = Homo sapiens, CCRF-CEM, cell line CCRF-CEM, read-out: cell panel IC50, CCRF-CEM
[18] = Homo sapiens, DLD-1, cell line DLD-1, read-out: cell panel IC50, DLD-1
[19] = Homo sapiens, FaDu, cell line FaDu, read-out: cell panel IC50, FaDu
[20] = Homo sapiens, HCT-15, cell line HCT-15, read-out: cell panel IC50, HCT-15
[21] = Homo sapiens, HCT-116, read-out: cell panel IC50, HCT-116, cell line HCT-116
[22] = Homo sapiens, Hs-578T, cell line Hs 578T, read-out: cell panel IC50, Hs 578T
[23] = Homo sapiens, Jurkat E6.1, cell line Jurkat E6.1, read-out: cell panel IC50, Jurkat E6.1
[24] = Homo sapiens, K562, read-out: cell panel IC50, K-562, cell line K-562
[25] = Homo sapiens, LS174T, read-out: cell panel IC50, LS 174T, cell line LS 174T
[26] = Homo sapiens, LoVo, cell line LoVo, read-out: cell panel IC50, LoVo
[27] = Homo sapiens, MG-63, cell line MG-63, read-out: cell panel IC50, MG-63
[28] = Homo sapiens, MOLT-4, cell line MOLT-4, read-out: cell panel IC50, MOLT-4
[29] = Homo sapiens, MeWo, cell line MeWo, read-out: cell panel IC50, MeWo
[30] = Homo sapiens, NCI-H82, cell line NCI-H82, read-out: cell panel IC50, NCI-H82
[31] = Homo sapiens, NCI-H460, cell line NCI-H460, read-out: cell panel IC50, NCI-H460
[32] = Homo sapiens, OVCAR-3, cell line OVCAR-3, read-out: cell panel IC50, OVCAR-3
[33] = Homo sapiens, RPMI-7951, cell line RPMI-7951, read-out: cell panel IC50, RPMI-7951
[34] = Homo sapiens, SHP77, cell line SHP-77, read-out: cell panel IC50, SHP-77
[35] = Homo sapiens, SK-N-AS, cell line SK-N-AS, read-out: cell panel IC50, SK-N-AS
[36] = Homo sapiens, SW48, cell line SW48, read-out: cell panel IC50, SW48
[37] = Homo sapiens, SW480, cell line SW480, read-out: cell panel IC50, SW480
[38] = Homo sapiens, SW-620, cell line SW620, read-out: cell panel IC50, SW620
[39] = Homo sapiens, U2OS, cell line U-2 OS, read-out: cell panel IC50, U-2 OS
[40] = Homo sapiens, U-87 MG, 72 h, U-87 MG cell line, ATPlite, 72 hours, read-out: IC50 in cell proliferation assay (table S5 cellpanel data)
[41] = Homo sapiens, cell line J82, read-out: cell panel IC50, J82
[42] = Homo sapiens, cell line PA-1, read-out: cell panel IC50, PA-1
[43] = Homo sapiens, cell line SJCRH30, read-out: cell panel IC50, SJCRH30
[44] = Homo sapiens, cell line SR, read-out: cell panel IC50, SR

SMILES: N.N.[Cl][Pt][Cl] [cisplatin]
- IC50 (U-87 MG cell line, ATPlite, 72 hours, read-out: IC50 in cell proliferation assay (table S5 cellpanel data)): > 31600 nM
- IC50 (cell line 769-P, read-out: cell panel IC50, 769-P): > 31600 nM
- IC50 (cell line 786-0, read-out: cell panel IC50, 786-0): 15100 nM
- IC50 (cell line A375, read-out: cell panel IC50, A375): 13300 nM
- IC50 (cell line A-204, read-out: cell panel IC50, A-204): > 31600 nM
- IC50 (cell line ACHN, read-out: cell panel IC50, ACHN): 13500 nM
- IC50 (cell line AN3 CA, read-out: cell panel IC50, AN3 CA): 27500 nM
- IC50 (cell line BT-20, read-out: cell panel IC50, BT-20): > 31600 nM
- IC50 (cell line BxPC-3, read-out: cell panel IC50, BxPC-3): 20200 nM
- IC50 (cell line C-33 A, read-out: cell panel IC50, C-33 A): 13900 nM
- IC50 (cell line CAL 27, read-out: cell panel IC50, CAL 27): 6140 nM
- IC50 (cell line CCRF-CEM, read-out: cell panel IC50, CCRF-CEM): 10500 nM
- IC50 (cell line DLD-1, read-out: cell panel IC50, DLD-1): > 31600 nM
- IC50 (cell line FaDu, read-out: cell panel IC50, FaDu): 27300 nM
- IC50 (cell line HCT-15, read-out: cell panel IC50, HCT-15): > 31600 nM
- IC50 (cell line Hs 578T, read-out: cell panel IC50, Hs 578T): > 31600 nM
- IC50 (cell line J82, read-out: cell panel IC50, J82): 10100 nM
- IC50 (cell line Jurkat E6.1, read-out: cell panel IC50, Jurkat E6.1): 4850 nM
- IC50 (cell line LoVo, read-out: cell panel IC50, LoVo): > 31600 nM
- IC50 (cell line MG-63, read-out: cell panel IC50, MG-63): 8570 nM
- IC50 (cell line MOLT-4, read-out: cell panel IC50, MOLT-4): 8080 nM
- IC50 (cell line MeWo, read-out: cell panel IC50, MeWo): > 31600 nM
- IC50 (cell line NCI-H82, read-out: cell panel IC50, NCI-H82): 19800 nM
- IC50 (cell line NCI-H460, read-out: cell panel IC50, NCI-H460): 10000 nM
- IC50 (cell line OVCAR-3, read-out: cell panel IC50, OVCAR-3): > 31600 nM
- IC50 (cell line PA-1, read-out: cell panel IC50, PA-1): 1420 nM
- IC50 (cell line RPMI-7951, read-out: cell panel IC50, RPMI-7951): 10000 nM
- IC50 (cell line SHP-77, read-out: cell panel IC50, SHP-77): > 31600 nM
- IC50 (cell line SJCRH30, read-out: cell panel IC50, SJCRH30): > 31600 nM
- IC50 (cell line SK-N-AS, read-out: cell panel IC50, SK-N-AS): > 31600 nM
- IC50 (cell line SR, read-out: cell panel IC50, SR): 4450 nM
- IC50 (cell line SW48, read-out: cell panel IC50, SW48): > 31600 nM
- IC50 (cell line SW480, read-out: cell panel IC50, SW480): > 31600 nM
- IC50 (cell line SW620, read-out: cell panel IC50, SW620): > 31600 nM
- IC50 (cell line U-2 OS, read-out: cell panel IC50, U-2 OS): > 31600 nM
- IC50 (read-out: cell panel IC50, A-172, cell line A-172): > 31600 nM
- IC50 (read-out: cell panel IC50, A-427, cell line A-427): > 31600 nM
- IC50 (read-out: cell panel IC50, A-498, cell line A-498): 23300 nM
- IC50 (read-out: cell panel IC50, A-549, cell line A-549): 15600 nM
- IC50 (read-out: cell panel IC50, AU-565, cell line AU-565): 15200 nM
- IC50 (read-out: cell panel IC50, BT-549, cell line BT-549): 9550 nM
- IC50 (read-out: cell panel IC50, HCT-116, cell line HCT-116): > 31600 nM
- IC50 (read-out: cell panel IC50, K-562, cell line K-562): > 31600 nM
- IC50 (read-out: cell panel IC50, LS 174T, cell line LS 174T): 8570 nM

SMILES: CC(=O)O[C@@]12CO[C@@H]1C[C@H](O)[C@@]1(C)C(=O)[C@H](O)C3=C(C)[C@@H](OC(=O)[C@H](O)[C@@H](NC(=O)OC(C)(C)C)c4ccccc4)C[C@@](O)([C@@H](OC(=O)c4ccccc4)[C@H]21)C3(C)C [docetaxel]
- IC50 [1]: 10 nM
- IC50 [2]: 17 nM
- IC50 [3]: 3.25 nM
- IC50 [4]: 3 nM
- IC50 [5]: 13 nM
- IC50 [6]: 2.14 nM
- IC50 [7]: 5.52 nM
- IC50 [8]: 3.5 nM
- IC50 [9]: 21 nM
- IC50 [10]: 0.902 nM
- IC50 [11]: 2.22 nM
- IC50 [12]: 9 nM
- IC50 [13]: 2.85 nM
- IC50 [14]: 3.35 nM
- IC50 [15]: 2.85 nM
- IC50 [16]: 1.64 nM
- IC50 [17]: 6.45 nM
- IC50 [18]: 23 nM
- IC50 [19]: 1.18 nM
- IC50 [20]: 58 nM
- IC50 [21]: 2 nM
- IC50 [22]: 2.13 nM
- IC50 [23]: 2 nM
- IC50 [24]: 2.68 nM
- IC50 [25]: 2.22 nM
- IC50 [26]: 8 nM
- IC50 [27]: 1.08 nM
- IC50 [28]: 1.74 nM
- IC50 [29]: 2.63 nM
- IC50 [30]: 1.37 nM
- IC50 [31]: 5.57 nM
- IC50 [32]: 4 nM
- IC50 [33]: 1.9 nM
- IC50 [34]: 138 nM
- IC50 [35]: 3.37 nM
- IC50 [36]: 3.39 nM
- IC50 [37]: 3.34 nM
- IC50 [38]: 2.25 nM
- IC50 [39]: 7.41 nM
- IC50 [40]: 11 nM
- IC50 [41]: 15 nM
- IC50 [42]: 0.943 nM
- IC50 [43]: 2.45 nM
- IC50 [44]: 2.17 nM

SMILES: COc1cc([C@@H]2c3cc4c(cc3[C@@H](O[C@@H]3O[C@@H]5CO[C@@H](C)O[C@H]5[C@H](O)[C@H]3O)[C@H]3COC(=O)[C@H]23)OCO4)cc(OC)c1O [etoposide]
- IC50 [1]: 815 nM
- IC50 [2]: 3680 nM
- IC50 [3]: 11100 nM
- IC50 [4]: 653 nM
- IC50 [5]: 1010 nM
- IC50 [6]: 859 nM
- IC50 [7]: 397 nM
- IC50 [8]: 347 nM
- IC50 [9]: 1170 nM
- IC50 [10]: 3180 nM
- IC50 [11]: 993 nM
- IC50 [12]: 7380 nM
- IC50 [13]: 1180 nM
- IC50 [14]: 10700 nM
- IC50 [15]: 376 nM
- IC50 [16]: 525 nM
- IC50 [17]: 106 nM
- IC50 [18]: 5640 nM
- IC50 [19]: 1350 nM
- IC50 [20]: 1560 nM
- IC50 [21]: 658 nM
- IC50 [22]: 4000 nM
- IC50 [23]: 240 nM
- IC50 [24]: 1140 nM
- IC50 [25]: 219 nM
- IC50 [26]: 739 nM
- IC50 [27]: 2100 nM
- IC50 [28]: 57 nM
- IC50 [29]: 5240 nM
- IC50 [30]: 1010 nM
- IC50 [31]: 331 nM
- IC50 [32]: 22400 nM
- IC50 [33]: 701 nM
- IC50 [34]: > 31600 nM
- IC50 [35]: 1370 nM
- IC50 [36]: 205 nM
- IC50 [37]: 4650 nM
- IC50 [38]: 4180 nM
- IC50 [39]: 3330 nM
- IC50 [40]: 29400 nM
- IC50 [41]: 4940 nM
- IC50 [42]: 83 nM
- IC50 [43]: 1030 nM
- IC50 [44]: 47 nM
